Test results reported in publication PMC4932538, “Alkanediamide-Linked Bisbenzamidines Are Promising Antiparasitic Agents” (Pharmaceuticals, 2016).
Entries after “also recorded” stand apart in the source; their conditions may differ. Where two headings read alike, the source gives them in different places.

How the values were obtained:
calf thymus DNA = experiment: DNA thermal melting with calf thymus DNA; type: binding; details: 1:5 compound to DNA base pair ratio; mean of at least two determinations
Protocol: (§1) In addition to the determination of the potency of the synthesized compounds against different strains of cell lines (Table 1), thermal melting experiments of these compounds were also conducted with poly(dA-dT) and calf thymus DNA (Table S1, supplementary file). […] The weaker binding to DNA (lower ΔTm values) compared to pentamidine might be attributed to the lower lipophilicity and higher PSA properties of these compounds since they would be expected to bind less favorably in the less polar environment of the minor grove of DNA as was reported for the aza-analogues of furamidine. […] Therefore, ability of these compounds to act at other potential targets cannot be ruled out.
(§2) The DNA binding affinity of the tested compounds was determined by measuring the change in mid-point of the thermal denaturation curves for a 1:5 compound to DNA base pair ratio as described previously. Each Tm value reported in Table S1 (supplementary file) represents the mean of at least two experimental determinations.

[1] = system: P. falciparum K1 (chloroquine-resistant); experiment: In vitro anti-plasmodial activity, K1; type: cell-based, Plasmodium falciparum
Protocol: (§5) The anti-T. cruzi activity was determined using intracellular amastigote forms of T. cruzi Tulahuen strain C2C4 in rat skeletal myoblasts (L6 cells) as described previously [24]. The anti-L. donovani activity was determined using the amastigotes of L. donovani strain MHOM-ET-67/L82 as described previously [24]. […] The cytotoxicity assays against rat skeletal myoblast L6-cells were performed as described previously [24].

[2] = system: T. b. rhodesiense KETRi 243 (melarsoprol, pentamidine- and diminazene diaceturate-resistant); experiment: In vitro antitrypanosomal activity, T.b. rhodesiense KETRI 243; type: cell-based, Trypanosoma brucei rhodesiense; details: Table S1, from IC50 of Table 1; for IC50: Trypanosoma brucei, RHODESIENSE, read-out: pIC50 T.b. rhod (converted)
Protocol: as §5

[3] = system: T. b. rhodesiense KETRi 243 (melarsoprol, pentamidine- and diminazene diaceturate-resistant); design: method as in PMID 19736009; details: strain KETRI 243; average of at least two determinations; read-out: IC50 T.b. rhod; cited from earlier work
[4] = system: T. b. brucei Lab 110 EATRO (pentamidine-sensitive); design: method as in PMID 19736009; details: strain Lab 110; average of at least two determinations; cited from earlier work
[5] = system: intracellular amastigote forms of T. cruzi Tulahuen strain C2C4 in rat skeletal myoblasts (L6 cells); experiment: In vitro anti-T. cruzi activity; type: cell-based, Trypanosoma cruzi; details: average of at least two determinations
Protocol: as §5

poly(dA-dT) = experiment: DNA thermal melting with poly(dA-dT); type: binding; details: 1:5 compound to DNA base pair ratio; mean of at least two determinations
Protocol: as §1, §2

[6] = system: T. b. brucei Lab 110 EATRO (pentamidine-sensitive); experiment: In vitro antitrypanosomal activity, T.b. brucei Lab 110 EATRO; type: cell-based, Trypanosoma brucei brucei; details: Table S1, from IC50 of Table 1; for IC50: Trypanosoma brucei, read-out: pIC50 T.b. brucei (converted)
Protocol: The in vitro assays with the two isolates of T. brucei were conducted according to previously described procedures [14].

[7] = system: amastigotes of L. donovani strain MHOM-ET-67/L82; experiment: In vitro anti-L. donovani activity; type: cell-based, Leishmania donovani; details: average of at least two determinations
Protocol: as §5

[8] = system: rat skeletal myoblast L6-cells; experiment: Cytotoxicity against L6 cells; type: cell-based
Protocol: as §5

[9] = system: P. falciparum NF54 (chloroquine-sensitive); experiment: In vitro anti-plasmodial activity, NF54; type: cell-based, Plasmodium falciparum
[10] = system: T.b. rhodesiense KETRI 2002; experiment: In vivo trypanocidal activity in mice, KETRI 2002
Protocol: (§3) The compounds were administered via the intraperitoneal route at doses ranging from 1.0 mg/kg/day to 25.0 mg/kg/day for 3 days unless otherwise noted. Pentamidine was used as the reference compound. All three of the tested compounds were effective in curing mice infected with the Lab 110 EATRO or KETRI 2002 strains at several doses.
(§4) The in vivo studies were conducted according to the procedures described previously.

[11] = system: T.b. brucei Lab 110 EATRO; experiment: In vivo trypanocidal activity in mice, Lab 110 EATRO
Protocol: as §3, §4

[12] = Plasmodium falciparum, K1, chloroquine-resistant strain, read-out: IC50 P. falcip K1
[13] = Trypanosoma cruzi, TULAHUEN, L6
[14] = Rattus norvegicus, L6, cytotoxicity, read-out: IC50 L6 Cells
[15] = chloroquine-resistant strain, read-out: IC50 P. falcip K1
[16] = cytotoxicity, read-out: IC50 L6 Cells
[17] = chloroquine-sensitive strain, read-out: IC50 P. falcip NF54

| Compound | Thermal Melting ΔTm CT-DNA (calf thymus DNA) [C] | IC50 [3] [nM] | IC50 [4] [nM] | Thermal Melting ΔTm Poly(dA-dT) (poly(dA-dT)) [C] | pIC50 P. falcip K1 ([1]; Table S1, from IC50 of Table 1) | IC50 [1, 15] [nM] | pIC50 T.b. rhod [2] | IC50 [5] [nM] | pIC50 T.b. brucei [6] | IC50 [7] [nM] | IC50 [8, 16] [nM] | IC50 [9, 17] [nM] | other results |
| --- | --- | --- | --- | --- | --- | --- | --- | --- | --- | --- | --- | --- | --- |
| N#Cc1ccc(NC(=O)CCCC(=O)Nc2ccc(C#N)cc2)cc1 [Compound 3] | −0.2 | 7900 | 6500 | 0.15 |  |  |  |  |  |  |  |  | IC50 ([1]; Plasmodium falciparum, K1, Table S1, from IC50 of Table 1, read-out: pIC50 P. falcip K1 (converted)): 44800 nM; IC50 [1, 12]: 44800 nM; IC50 [2]: 7910 nM; IC50 [5, 13]: > 100000 nM; IC50 [6]: 6500 nM; IC50 ([7]; Leishmania donovani): > 100000 nM; IC50 [8, 14]: > 100000 nM |
| N=C(N)c1cccc(NC(=O)CCCCC(=O)Nc2cccc(C(=N)N)c2)c1 [Compound 7] |  | 21 | 41 | 13.8 | 6.420 | 380 | 7.678 | > 100000 | 7.387 | > 100000 | > 100000 |  |  |
| NC(=O)c1ccc(NC(=O)CCCCC(=O)Nc2ccc(C(N)=O)cc2)cc1 [Compound 8] |  | 1100 | 2800 | 0.0 |  |  |  |  |  |  |  |  | IC50 [1, 12]: > 100000 nM; IC50 [2]: 1100 nM; IC50 [5, 13]: > 100000 nM; IC50 [6]: 2800 nM; IC50 ([7]; Leishmania donovani): > 100000 nM; IC50 [8, 14]: > 100000 nM |
| NC(=O)c1cccc(NC(=O)CCCCC(=O)Nc2cccc(C(N)=O)c2)c1 [Compound 9] |  | 1970 |  | 0.0 |  |  |  |  |  |  |  |  | IC50 [1, 12]: > 100000 nM; IC50 [2]: 1970 nM; IC50 [5, 13]: > 100000 nM; IC50 ([7]; Leishmania donovani): > 100000 nM; IC50 [8, 14]: 46400 nM |
| N=C(N)c1ccc(NC(=O)CCCCC(=O)Nc2cccc(C(=N)N)c2)cc1 [Compound 10] |  | 7 | 12 |  | 8.398 | 4 | 8.155 | > 100000 | 7.921 | > 100000 | > 100000 | 15 |  |
| N=C(N)c1ccc(NC(=O)CCCCCCC(=O)Nc2ccc(C(=N)N)cc2)cc1 [Compound 12] | 7.1 | 1 | 3 | 13.2 | 8.222 | 6 | 9.000 | > 100000 | 8.523 | > 100000 | 38400 | 2 |  |
| N=C(N)c1ccc(NC(=O)CCCCCCCCC(=O)Nc2ccc(C(=N)N)cc2)cc1 [Compound 14] | 6.6 | 4 | 2 | 10.0 | 7.921 | 12 | 8.398 | 76400 | 8.699 | 68500 | 78600 | 14 |  |
| O=C(Cn1ccnc1[N+](=O)[O-])NCc1ccccc1 [benznidazole, reference compound] |  |  |  |  |  |  |  |  |  |  |  |  | IC50 [5, 13]: 1130 nM |
| CCN(CC)CCCC(C)Nc1ccnc2cc(Cl)ccc12 (centres unmarked) [chloroquine, reference compound] |  |  |  |  |  |  |  |  |  |  |  |  | IC50 ([1]; Plasmodium falciparum, K1, read-out: IC50 P. falcip K1): 180 nM; IC50 ([9]; Plasmodium falciparum, NF54, read-out: IC50 P. falcip NF54): 6 nM |
| COc1cc([C@@H]2c3cc4c(cc3[C@H](O)[C@H]3COC(=O)[C@H]23)OCO4)cc(OC)c1OC [podophyllotoxin, reference compound] |  |  |  |  |  |  |  |  |  |  |  |  | IC50 ([8]; Rattus norvegicus, L6, read-out: IC50 L6 Cells): 10 nM |
| N,N′-bis[4-(aminoiminomethyl)phenyl] butane-1,4-dicarboxamide [Compound 2] | 8.1 | 2190 | 9000 | 11.5 | 6.538 | 290 | 5.660 | > 100000 | 5.046 | > 100000 | 28000 |  |  |
| N,N′-bis[4-(aminoiminomethyl)phenyl] dodecane-1,12-dicarboxamide [Compound 15] |  | 7 | 8 | 8.5 | 7.824 | 15 | 8.155 | 80900 | 8.097 | 10700 | 80200 | 32 |  |
| N,N′-bis[4-(aminoiminomethyl)phenyl] heptane-1,7-dicarboxamide [Compound 11] | 6.4 | 2 | 2 | 10.7 | 8.699 | 2 | 8.699 | > 100000 | 8.699 | > 100000 | 43000 | 2 | curing of infected mice ([10]; KETRI 2002, i.p., 3 days): the most effective; also recorded: highly effective; Mean Survival ([10]; KETRI 2002, 1.0, 2.5, 5, 10 mg/kg/day i.p. for 3 days (all doses)): >30 days; Mean Survival ([11]; 1.0, 2.5, 5, 10 mg/kg/day i.p. for 3 days (all doses)): >30 days; curing of infected mice ([11]; i.p., 3 days): the most effective; also recorded: highly effective |
| N,N′-bis[4-(aminoiminomethyl)phenyl] nonane-1,9-dicarboxamide [Compound 13] | 4.6 | 240 | 400 | 7.5 | 8.097 | 8 | 6.620 | 99500 | 6.398 | 67400 | 49200 | 2 |  |
